# Data from US7579487B2 (dated 2009).
row,melting point [°C],Structure (SMILES)
1,188.5 to 189.5,CC(C)=C(NS(=O)(=O)c1ccc(C)cc1)C(=O)O
2,162.5 to 163.5,COc1ccc(S(=O)(=O)NC(C(=O)O)=C(C)C)cc1
3,172 to 173,CC(C)=C(NS(=O)(=O)c1ccc(F)cc1)C(=O)O
4,194 to 195,CC(C)=C(NS(=O)(=O)Cc1ccccc1)C(=O)O
5,104.5 to 106,CC(C)=C(NS(=O)(=O)CCCc1ccccc1)C(=O)O
6,221 to 222,Cc1ccc(S(=O)(=O)NC(C(=O)O)=C2CCCCC2)cc1
7,214 to 215,O=C(O)C(NS(=O)(=O)c1ccc(F)cc1)=C1CCCCC1
8,150.5 to 151.5,C/C=C(/NS(=O)(=O)c1ccc(C)cc1)C(=O)O
9,166.5 to 167.5,Cc1ccc(S(=O)(=O)N/C(=C/C(C)C)C(=O)O)cc1
10,116.5 to 117.5,COc1ccc(S(=O)(=O)NC(C(=O)O)C(C)C)cc1 (stereo not shown)
11,120 to 121.5,CC(C)[C@H](NS(=O)(=O)Cc1ccccc1)C(=O)O
12,151 to 152,CC(C)[C@H](NS(=O)(=O)CCCc1ccccc1)C(=O)O
13,182 to 184,Cc1ccc(S(=O)(=O)NC(C(=O)O)C2CCCCC2)cc1 (stereo not shown)
14,143 to 145,O=C(O)C(NS(=O)(=O)c1ccc(F)cc1)C1CCCCC1 (stereo not shown)
15,133.5 to 135.5,CCC(NS(=O)(=O)c1ccc(C)cc1)C(=O)O (stereo not shown)
16,122 to 123,Cc1ccc(S(=O)(=O)NC(CC(C)C)C(=O)O)cc1 (stereo not shown)
